Patent US8013156B2 (Exelixis, Inc., priority 2003, dated 2011)

The compounds below were run against Tie-2 (Homo sapiens, UniProt Q02763) (assay: Tie-2 tyrosine kinase activity assay (luciferase/luciferin ATP consumption with pEY substrate, or 33P-ATP incorporation)). Conditions: human enzyme Tie-2.
Chain of Tie-2 (Q02763 23-1124): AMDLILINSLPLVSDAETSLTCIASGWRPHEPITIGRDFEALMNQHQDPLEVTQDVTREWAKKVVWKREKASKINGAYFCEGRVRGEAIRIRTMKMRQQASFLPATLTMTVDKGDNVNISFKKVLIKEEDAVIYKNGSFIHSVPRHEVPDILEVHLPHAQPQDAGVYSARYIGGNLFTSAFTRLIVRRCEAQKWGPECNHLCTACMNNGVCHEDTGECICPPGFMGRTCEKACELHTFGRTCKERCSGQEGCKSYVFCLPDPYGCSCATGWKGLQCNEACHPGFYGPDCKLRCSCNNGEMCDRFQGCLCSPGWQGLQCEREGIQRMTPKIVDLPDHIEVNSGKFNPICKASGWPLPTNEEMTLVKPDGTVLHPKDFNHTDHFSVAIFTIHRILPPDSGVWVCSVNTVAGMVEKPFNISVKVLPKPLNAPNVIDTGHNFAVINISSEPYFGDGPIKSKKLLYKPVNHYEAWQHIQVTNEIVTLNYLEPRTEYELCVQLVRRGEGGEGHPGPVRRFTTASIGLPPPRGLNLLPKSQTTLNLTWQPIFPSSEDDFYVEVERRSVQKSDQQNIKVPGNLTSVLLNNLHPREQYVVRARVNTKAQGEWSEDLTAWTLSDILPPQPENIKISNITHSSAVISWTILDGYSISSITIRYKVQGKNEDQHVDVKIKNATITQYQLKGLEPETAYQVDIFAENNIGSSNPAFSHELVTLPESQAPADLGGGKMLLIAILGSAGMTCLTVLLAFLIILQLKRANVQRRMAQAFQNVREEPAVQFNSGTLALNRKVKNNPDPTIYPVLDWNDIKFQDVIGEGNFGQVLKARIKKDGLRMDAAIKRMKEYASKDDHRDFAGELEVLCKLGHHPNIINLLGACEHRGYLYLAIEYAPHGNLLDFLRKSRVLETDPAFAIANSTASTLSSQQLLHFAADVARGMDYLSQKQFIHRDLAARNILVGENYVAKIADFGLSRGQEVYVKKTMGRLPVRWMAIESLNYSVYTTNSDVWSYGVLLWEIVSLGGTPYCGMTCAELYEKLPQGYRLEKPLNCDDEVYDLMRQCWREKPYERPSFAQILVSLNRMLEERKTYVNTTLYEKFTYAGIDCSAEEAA
Format: biochemical
Outline: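 Values are IC50 categories (A <50 nM to D ≥10,000 nM), with Ki obtainable by fitting rates to a tight-binding model. Assay formats: 33P-ATP phosphate transfer to adsorbed generic substrate counted by scintillation, or luciferase-detected ATP depletion using pEY.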
An IC50 of under 50 nM was found for `Nc1nccc(COc2nsnc2N2CCN(C(=O)Nc3cccc(OC(F)(F)F)c3)CC2)n1` [Example 258, 4-(4-{[(2-aminopyrimidin-4-yl)methyl]oxy}-1,2,5-thiadiazol-3-yl)-N-{3-[(trifluoromethyl)oxy]phenyl}piperazine-1-carboxamide] in this work.
An IC50 of 50 to 1000 nM was found for `COc1cccc(NC(=O)N2CCN(c3nsnc3OCc3ccnc(N)n3)CC2)c1` [Example 259, 4-(4-{[(2-aminopyrimidin-4-yl)methyl]oxy}-1,2,5-thiadiazol-3-yl)-N-[3-(methyloxy)phenyl]piperazine-1-carboxamide] in this work.
An IC50 of under 50 nM was found for `CCc1cc(NC(=O)N2CCN(c3nsnc3OCc3ccnc(N)n3)CC2)cc(C(F)(F)F)c1` [Example 260, 4-(4-{[(2-aminopyrimidin-4-yl)methyl]oxy}-1,2,5-thiadiazol-3-yl)-N-[3-ethyl-5-(trifluoromethyl)phenyl]piperazine-1-carboxamide] in this work.
An IC50 of under 50 nM was found for `CC(C)c1cccc(NC(=O)N2CCN(c3nsnc3OCc3ccnc(N)n3)CC2)c1` [Example 261, 4-(4-{[(2-aminopyrimidin-4-yl)methyl]oxy}-1,2,5-thiadiazol-3-yl)-N-[3-(1-methylethyl)phenyl]piperazine-1-carboxamide] in this work.
An IC50 of 50 to 1000 nM was found for `Nc1nccc(COc2nsnc2N2CCN(C(=O)Nc3cc(C(F)(F)F)ccc3Cl)CC2)n1` [Example 262, 4-(4-{[(2-aminopyrimidin-4-yl)methyl]oxy}-1,2,5-thiadiazol-3-yl)-N-[2-chloro-5-(trifluoromethyl)phenyl]piperazine-1-carboxamide] in this work.
An IC50 of 1000 to 10000 nM was found for `Nc1nccc(COc2nsnc2N2CCN(C(=O)Nc3cccc(F)c3)CC2)n1` [Example 263, 4-(4-{[(2-aminopyrimidin-4-yl)methyl]oxy}-1,2,5-thiadiazol-3-yl)-N-(3-fluorophenyl)piperazine-1-carboxamide] in this work.
An IC50 of at least 10000 nM was found for `CCOc1ccccc1NC(=O)N1CCN(c2nsnc2OCc2ccnc(N)n2)CC1` [Example 264, 4-(4-{[(2-aminopyrimidin-4-yl)methyl]oxy}-1,2,5-thiadiazol-3-yl)-N-[2-(ethyloxy)phenyl]piperazine-1-carboxamide] in this work.
An IC50 of at least 10000 nM was found for `Nc1nccc(COc2nsnc2N2CCN(C(=O)Nc3ccc(F)c(F)c3)CC2)n1` [Example 265, 4-(4-{[(2-aminopyrimidin-4-yl)methyl]oxy}-1,2,5-thiadiazol-3-yl)-N-(3,4-difluorophenyl)piperazine-1-carboxamide] in this work.
An IC50 of 50 to 1000 nM was found for `CSc1cccc(NC(=O)N2CCN(c3nsnc3OCc3ccnc(N)n3)CC2)c1` [Example 266, 4-(4-{[(2-aminopyrimidin-4-yl)methyl]oxy}-1,2,5-thiadiazol-3-yl)-N-[3-(methylthio)phenyl]piperazine-1-carboxamide] in this work.
An IC50 of 1000 to 10000 nM was found for `CC(=O)c1cccc(NC(=O)N2CCN(c3nsnc3OCc3ccnc(N)n3)CC2)c1` [Example 267, N-(3-acetylphenyl)-4-(4-{[(2-aminopyrimidin-4-yl)methyl]oxy}-1,2,5-thiadiazol-3-yl)piperazine-1-carboxamide] in this work.
An IC50 of under 50 nM was found for `Nc1nccc(COc2ccccc2N2CCN(C(=O)Nc3cc(C(F)(F)F)ccc3F)CC2)n1` [Example 268, 4-(2-{[(2-aminopyrimidin-4-yl)methyl]oxy}phenyl)-N-[2-fluoro-5-(trifluoromethyl)phenyl]piperazine-1-carboxamide] in this work.
An IC50 of 1000 to 10000 nM was found for `Nc1nccc(COc2ccccc2N2CCN(C(=O)Nc3cccc(F)c3)CC2)n1` [Example 269, 4-(2-{[(2-aminopyrimidin-4-yl)methyl]oxy}phenyl)-N-(3-fluorophenyl)piperazine-1-carboxamide] in this work.
An IC50 of 1000 to 10000 nM was found for `Nc1nccc(COc2ccccc2N2CCN(C(=O)Nc3ccccc3)CC2)n1` [Example 270, 4-(2-{[(2-aminopyrimidin-4-yl)methyl]oxy}phenyl)-N-phenylpiperazine-1-carboxamide] in this work.
An IC50 of under 50 nM was found for `Nc1nccc(COc2ccccc2N2CCN(C(=O)Nc3cc(Cl)cc(Cl)c3)CC2)n1` [Example 271, 4-(2-{[(2-aminopyrimidin-4-yl)methyl]oxy}phenyl)-N-(3,5-dichlorophenyl)piperazine-1-carboxamide] in this work.
An IC50 of under 50 nM was found for `Nc1nccc(COc2ccccc2N2CCN(C(=O)Nc3cc(F)cc(C(F)(F)F)c3)CC2)n1` [Example 272, 4-(2-{[(2-aminopyrimidin-4-yl)methyl]oxy}phenyl)-N-[3-fluoro-5-(trifluoromethyl)phenyl]piperazine-1-carboxamide] in this work.
An IC50 of under 50 nM was found for `COc1cc2nccc(COc3nsnc3N3CCN(C(=O)Nc4cc(C(F)(F)F)cc(C(F)(F)F)c4)CC3)c2cc1OC` [Example 273, 4-[4-({[6,7-bis(methyloxy)quinolin-4-yl]methyl}oxy)-1,2,5-thiadiazol-3-yl]-N-[3,5-bis(trifluoromethyl)phenyl]piperazine-1-carboxamide] in this work.
An IC50 of 50 to 1000 nM was found for `Nc1nccc(COc2nsnc2N2CCN(C(=O)Cc3cc(C(F)(F)F)cc(C(F)(F)F)c3)CC2)n1` [Example 274, 4-({[4-(4-{[3,5-bis(trifluoromethyl)phenyl]acetyl}piperazin-1-yl)-1,2,5-thiadiazol-3-yl]oxy}methyl)pyrimidin-2-amine] in this work.
An IC50 of under 50 nM was found for `NC(=O)c1cnc(OCc2ccnc(N)n2)c(N2CCN(C(=O)Nc3cc(C(F)(F)F)cc(C(F)(F)F)c3)CC2)n1` [Example 275, 5-{[(2-aminopyrimidin-4-yl)methyl]oxy}-6-[4-({[3,5-bis(trifluoromethyl)phenyl]amino}carbonyl)piperazin-1-yl]pyrazine-2-carboxamide] in this work.
An IC50 of under 50 nM was found for `COc1cc2nccc(Oc3nsnc3N3CCN(C(=O)Nc4cc(C(F)(F)F)cc(C(F)(F)F)c4)CC3)c2cc1OC` [Example 276, 4-(4-{[6,7-bis(methyloxy)quinolin-4-yl]oxy}-1,2,5-thiadiazol-3-yl)-N-[3,5-bis(trifluoromethyl)phenyl]piperazine-1-carboxamide] in this work.
An IC50 of under 50 nM was found for `CCc1cc(NC(=O)N2CCN(c3ccccc3OCc3ccnc(N)n3)CC2)cc(C(F)(F)F)c1` [Example 277, 4-(2-{[(2-aminopyrimidin-4-yl)methyl]oxy}phenyl)-N-[3-ethyl-5-(trifluoromethyl)phenyl]piperazine-1-carboxamide] in this work.
An IC50 of under 50 nM was found for `CCc1ccc(F)c(NC(=O)N2CCN(c3ccccc3OCc3ccnc(N)n3)CC2)c1` [Example 278, 4-(2-{[(2-aminopyrimidin-4-yl)methyl]oxy}phenyl)-N-(5-ethyl-2-fluorophenyl)piperazine-1-carboxamide] in this work.
An IC50 of under 50 nM was found for `CCc1cc(CC)cc(NC(=O)N2CCN(c3ccccc3OCc3ccnc(N)n3)CC2)c1` [Example 279, 4-(2-{[(2-aminopyrimidin-4-yl)methyl]oxy}phenyl)-N-(3,5-diethylphenyl)piperazine-1-carboxamide] in this work.
An IC50 of at least 10000 nM was found for `Nc1nccc(COc2nsnc2N2CCN(C(=O)Cc3ccc4ccccc4c3)CC2)n1` [Example 280, 4-[({4-[4-(naphthalen-2-ylacetyl)piperazin-1-yl]-1,2,5-thiadiazol-3-yl}oxy)methyl]pyrimidin-2-amine] in this work.
An IC50 of under 50 nM was found for `CCc1cc(Cl)cc(NC(=O)N2CCN(c3ccccc3OCc3ccnc(N)n3)CC2)c1` [Example 281, 4-(2-{[(2-aminopyrimidin-4-yl)methyl]oxy}phenyl)-N-(3-chloro-5-ethylphenyl)piperazine-1-carboxamide] in this work.
